The conditions of the data set: amide bond, 23-membered ring.
Where [1] appears, read: the molecule shown is the open-chain precursor.

Read-outs that look alike come from different tables or passages of the source.

On to `CC(C)C[C@@H]1NC(=O)[C@@H](Cc2ccccc2)NC(=O)[C@H](Cc2ccc(OC(C)(C)C)cc2)NC(=O)[C@@H](NC(=O)[C@H](CCNC(=O)OC(C)(C)C)NC(=O)OCC2c3ccccc3-c3ccccc32)CCNC(=O)[C@H]([C@@H](C)OC(C)(C)C)NC(=O)[C@H](CCNC(=O)OC(C)(C)C)NC(=O)[C@H](Cc2cn(C(=O)OC(C)(C)C)c3ccccc23)NC1=O`, for which the ring closure, isolated yield (from Fmoc-Dab(Boc)-Dab-Tyr(tBu)-dPhe-Leu-Trp(Boc)-Dab(Boc)-Thr(tBu)-OH?, HATU/HOAt/2,4,6-collidine, DCM/DMF, 0.71 mM) was found to be 87%. `CC(C)C[C@@H]1NC(=O)[C@@H](Cc2ccccc2)NC(=O)[C@H](Cc2ccc(OC(C)(C)C)cc2)NC(=O)[C@@H](NC(=O)[C@H](CCOC(c2ccccc2)(c2ccccc2)c2ccccc2)NC(=O)OCC2c3ccccc3-c3ccccc32)CCNC(=O)[C@H]([C@@H](C)OC(C)(C)C)NC(=O)[C@H](CCNC(=O)OC(C)(C)C)NC(=O)[C@H](Cc2cn(C(=O)OC(C)(C)C)c3ccccc23)NC1=O` came in with a ring closure, isolated yield (from Fmoc-Hse(Trt)-Dab-Tyr(tBu)-dPhe-Leu-Trp(Boc)-Dab(Boc)-Thr(tBu)-OH?, HATU/HOAt/2,4,6-collidine, DCM/DMF, 0.7 mM) of 70%. `CC(C)C[C@@H]1NC(=O)[C@@H](Cc2ccccc2)NC(=O)[C@H](Cc2ccc(OC(C)(C)C)cc2)NC(=O)[C@@H](NC(=O)[C@H](CCOC(c2ccccc2)(c2ccccc2)c2ccccc2)NC(=O)OCC2c3ccccc3-c3ccccc32)CCNC(=O)[C@H]([C@@H](C)OC(C)(C)C)NC(=O)[C@H](CCOC(c2ccccc2)(c2ccccc2)c2ccccc2)NC(=O)[C@H](Cc2cn(C(=O)OC(C)(C)C)c3ccccc23)NC1=O` showed a ring closure, isolated yield (from Fmoc-Hse(Trt)-Dab-Tyr(tBu)-dPhe-Leu-Trp(Boc)-Hse(Trt)-Thr(tBu)-OH?, HATU/HOAt/2,4,6-collidine, DCM/DMF, 0.7 mM) of 63%. `CC(C)C[C@@H]1NC(=O)[C@@H](Cc2ccccc2)NC(=O)[C@H](Cc2cn(C(=O)OC(C)(C)C)c3ccccc23)NC(=O)[C@@H](NC(=O)[C@H](CCNC(=O)OC(C)(C)C)NC(=O)OCC2c3ccccc3-c3ccccc32)CCNC(=O)[C@H]([C@@H](C)OC(C)(C)C)NC(=O)[C@H](CCNC(=O)OC(C)(C)C)NC(=O)[C@H](Cc2cn(C(=O)OC(C)(C)C)c3ccccc23)NC1=O` yielded a ring closure, isolated yield (from Fmoc-Dab(Boc)-Dab-Trp(Boc)-dPhe-Leu-Trp(Boc)-Dab(Boc)-Thr(tBu)-OH?, HATU/HOAt/2,4,6-collidine, DCM/DMF, 0.7 mM) of 70%.

As for `CC(C)C[C@H](NC(=O)OCC1c2ccccc2-c2ccccc21)C(=O)N[C@H]1CCNC(=O)[C@H]([C@@H](C)OC(C)(C)C)NC(=O)[C@H](CCNC(=O)OC(C)(C)C)NC(=O)[C@H](CCNC(=O)OC(C)(C)C)NC(=O)[C@H](CC(C)C)NC(=O)[C@@H](Cc2ccccc2)NC(=O)[C@H](Cc2cn(C(=O)OC(C)(C)C)c3ccccc23)NC1=O`, under “from Fmoc-Leu-Dab-Trp(Boc)-dPhe-Leu-Dab(Boc)-Dab(Boc)-Thr(tBu)-OH?, HATU/HOAt/2,4,6-collidine, DCM/DMF, 0.7 mM”, the ring closure, isolated yield stood at 78%. In the case of `CC[C@H](C)[C@@H]1NC(=O)[C@@H](NC(=O)[C@H](CCNC(=O)OC(C)(C)C)NC(=O)[C@@H](NC(=O)[C@H](CC(C)C)NC(C)=O)[C@@H](C)OC(C)(C)C)CCNC(=O)[C@H](CN=[N+]=[N-])NC(=O)[C@H](CCNC(=O)OC(C)(C)C)NC(=O)[C@H](CCNC(=O)OC(C)(C)C)NC(=O)[C@H](Cc2ccc(OC(C)(C)C)cc2)NC(=O)[C@@H](Cc2ccccc2)NC1=O`, under “from Ac-Leu-Thr(tBu)-Dab(Boc)-Dab(H-azidoAla)-Ile-dPhe-Tyr(tBu)-Dab(Boc)-Dab(Boc)-OH, HATU/HOAt/2,4,6-collidine, DCM/DMF 14:1, 0.7 mM”, the ring closure, isolated yield is 74%. In turn, “Ac-Glu(tBu)-Thr(tBu)-Dab(Boc)-Dab(H-Ala(N3))-Tyr(tBu)-dPhe-Leu-Dab(Boc)-Dab(Boc)-OH?” registered a ring closure, isolated yield under setting [1] of 65%.

Consider “Ac-Glu(tBu)-Thr(tBu)-Dab(Boc)-Dab(H-Ala(N3))-Tyr(tBu)-dPhe-Tyr(tBu)-Dab(Boc)-Dab(Boc)-OH?”, for which the ring closure, isolated yield under setting [1] is 48%. Still for that read-out and setting: for “Ac-Leu-Thr(tBu)-Dab(Boc)-Dab(H-Ala(N3))-Ile-dPhe-Tyr(tBu)-Dab(Boc)-Dab(Boc)-OH?” the value was 74%.

On to “Ac-Leu-Thr(tBu)-Dab(Boc)-Dab(H-Ala(N3))-Ile-dPhe-Tyr(tBu)-Hse(Trt)-Hse(Trt)-OH?”, for which the ring closure, isolated yield under setting [1] was 90%.

The values above are taken from paper PMC10218303, “Novel Polymyxin-Inspired Peptidomimetics Targeting the SARS-CoV-2 Spike:hACE2 Interface” (International Journal of Molecular Sciences, 2023).
